In US7556796B2, “Directed complementation” (AVEO Pharmaceuticals, Inc., priority 2005, dated 2009):

Experiments:
[1] = system: propagated tumors from Her2-dependent inducible spontaneous breast tumors; test: Drug response assay with propagated Her2-dependent primary breast tumors; type: in vivo, mouse; settings: 15 or 30 mg/kg, three doses at 5-day intervals, one week after last dosing
Procedure: From each primary tumor, about 0.1 million cells/site were injected sub-cutaneously into 30 sites on immunocompromised mice, which were then fed with doxycycline water. Each mouse received two injections, one on each side of its back (subcutaneous). Thus, one primary tumor was expanded into 30 propagated tumors onto 15 mice, each of the mice developing two tumors on its back. Out of these thirty tumors, 10 tumor-bearing mice were treated with vehicle (5 parts Tween-80, 5 parts absolute ethyl alcohol, 90 parts 5% dextrose), another 10 tumor bearing-mice were treated with 15 mg/kg docetaxel (Biochemika, cat. No. 01885), and the remaining 10 tumor-bearing mice were treated with 30 mg/kg docetaxel (which was already determined to be near MTD for this drug). In total, five primary tumors were expanded to 150 tumors in 75 animals.
When the tumors reached approximately 5 mm^3 in size, the treatments were begun. The animals were given three doses with 5-day intervals. The experiment was terminated one week after the final dosing. Among propagated tumors derived from any given primary tumor, uniformity in terms of latency, growth rate and drug response was expected (intra-tumoral uniformity). In contrast, among propagated tumors derived from different primary tumors variation in terms of growth rate, latency and drug response was expected (inter-tumoral variation). […]

[2] = Maximum tolerated dose (previously determined); settings: mouse, in vivo; already determined to be near MTD for this drug

CC(=O)O[C@@]12CO[C@@H]1C[C@H](O)[C@@]1(C)C(=O)[C@H](O)C3=C(C)[C@@H](OC(=O)[C@H](O)[C@@H](NC(=O)OC(C)(C)C)c4ccccc4)C[C@@](O)([C@@H](OC(=O)c4ccccc4)[C@H]21)C3(C)C [docetaxel]
drug response (tumor size vs vehicle) ([1]; propagated tumors from one of the five primary tumors): significant reduction in tumor growth
drug response (tumor size vs vehicle) ([1]; propagated tumors from the remaining four of five primary tumors): did not show any effect
MTD [2]: ~30 mg/kg
